We go through one molecule from patent US20210330821A1, “METHODS OF MAKING PROSTATE CANCER TREATMENT DECISIONS” (priority 2018, published 2021).

The data set is described as follows: OSPREY safety: drug-related adverse events after 18F-DCFPyL. It counts as in vivo, human. The procedure: The coprimary endpoints of sensitivity and specificity of ^18F-DCFPyL PET/CT for detecting pelvic lymph node metastases were evaluated in Cohort A. Secondary endpoints included safety in both cohorts, positive predictive value (PPV) and negative predictive value (NPV) in Cohort A, and sensitivity and PPV in Cohort B. Three central, blinded, and independent readers evaluated the ^18F-DCFPyL scans. Histopathology served as the reference standard to which imaging findings were compared. FIG. 1 provides information regarding the study design and cohorts.
Co-primary endpoints of specificity and sensitivity of ^18F-DCFPyL PET/CT for detecting prostate cancer metastases in pelvic lymph nodes were evaluated in Cohort A. Key secondary endpoints included incidence of adverse events, positive predictive value (PPV) and negative predictive value (NPV) of ^18F-DCFPyL PET/CT imaging to detect pelvic lymph node metastases in Cohort A, sensitivity and PPV of ^18F-DCFPyL PET/CT imaging to detect prostate cancer within sites of metastasis or recurrence in Cohort B. Three central, blinded, and independent readers evaluated the ^18F-DCFPyL scans. Imaging findings were compared to histopathology as the truth standard.
Pts underwent image-guided biopsy.

On to `O=C(O)CC[C@H](NC(=O)N[C@@H](CCCCNC(=O)c1ccc([18F])nc1)C(=O)O)C(=O)O` [18F-DCFPyL], for which, where the note is “Cohort B, 117 men, dysgeusia and generalized rash”, the “Cohort B pts who experienced ≥1 drug-related AE” value was found to be 1.7%. Besides, for the setting “Cohort B, dysgeusia and generalized rash”, the “Severity of drug-related AEs” value is listed as “mild (Grade 1)”. Further, for the setting “both cohorts”, the “Dysgeusia (drug-related adverse event)” value was determined as 2.1% and the “Headache (drug-related adverse event)” value amounted to 2.1%. For the same molecule, where the note is “both cohorts, 385 men”, the “Drug-related serious adverse events” value was “No drug-related serious adverse events were observed” and the “Men who experienced ≥1 drug-related adverse event” value was 7.0%. Also, the Tolerability entry (patients with PCa, OSPREY) is listed as “generally well tolerated”.
